From patent US9951028B2, “Agricultural chemicals” (REDAG CROP PROTECTION LTD, priority 2013, dated 2018)

Experiments:
Experiment in all cases: Herbicidal efficacy screen, corrected necrosis
Assay type in all cases: in vivo
[1] = test system: Abutilon theophrasti (China Jute)
Experimental: (§1) Plants were obtained as seeds and were grown to the 2-4 true leaf stage. Plants were grown under laboratory conditions, individually in seed trays. Each plant (in an approximately 3 cm diameter plug) was then detached from the tray for spraying. The compounds were screened at a range of five concentrations, diluted in acetone and Tween™. A carrier only control was also conducted. Treatments were applied directly onto the plants, using a potter tower, at a specified application rate. One plant of each species was sprayed using a potter tower. The 3 different types of plants were placed on a 10 cm diameter platform directly beneath the potter sprayer and sprayed simultaneously. The growth of the plants and any Phytotoxicity effects were then assessed at intervals over 21 days, according to EPPO guideline PP1/135. In the tables below C represents a percentage increase in necrosis relative to the control of 0.1-50; B represents a percentage inhibition of 50-80; and A represents a percentage inhibition of 80-100. Certain compounds of the invention were screened for herbicidal efficacy against target plants: Amaranthus retroflexus (redroot pigweed), Abutilon theophrasti (China Jute): Capsella bursa-pastoris, (shepherd's-purse) Echinochloa crus-galli, Hordeum vulgare (Barley),

[2] = test system: Amaranthus retroflexus (redroot pigweed)
Experimental: as §1

[3] = test system: Capsella bursa-pastoris, (shepherd's-purse)
Experimental: as §1

[4] = 6.25 g/ha, day 1 post application
[5] = 6.25 g/ha, day 7 post application
[6] = 12.5 g/ha, day 1 post application
[7] = 12.5 g/ha, day 7 post application
[8] = 25 g/ha, day 1 post application
[9] = 25 g/ha, day 7 post application
[10] = 50 g/ha, day 1 post application
[11] = 50 g/ha, day 7 post application
[12] = 100 g/ha, day 1 post application
[13] = 100 g/ha, day 7 post application

For `CC(C)N(C)S(=O)(=O)NC(=O)c1cc(-n2c(=O)cc(C(F)(F)F)n(C)c2=O)c(F)cc1Cl` [Compound 25, 2-Chloro-4-fluoro-N-(isopropyl(methyl)sulfamoyl)-5-[3-methyl-2,6-dioxo-4-(trifluoromethyl)pyrimidin-1-yl]benzamide, reference compound], the “Average of corrected necrosis” value [1, 4] was “C (C represents a percentage increase in necrosis relative to the control of 0.1-50)”, the “Average of corrected necrosis” value [1, 5] was “A (A represents a percentage inhibition of 80-100)” and the “Average of corrected necrosis” value [1, 6] was “C (C represents a percentage increase in necrosis relative to the control of 0.1-50)”. The “Average of corrected necrosis” value [1, 7] was “A (A represents a percentage inhibition of 80-100)”, the “Average of corrected necrosis” value [1, 8] was “C (C represents a percentage increase in necrosis relative to the control of 0.1-50)” and the “Average of corrected necrosis” value [1, 9] was “A (A represents a percentage inhibition of 80-100)”. For the same compound, the “Average of corrected necrosis” value [1, 10] was “C (C represents a percentage increase in necrosis relative to the control of 0.1-50)”, the “Average of corrected necrosis” value [1, 11] was “A (A represents a percentage inhibition of 80-100)” and the “Average of corrected necrosis” value [1, 12] was “C (C represents a percentage increase in necrosis relative to the control of 0.1-50)”. For the same compound, the “Average of corrected necrosis” value [1, 13] was “A (A represents a percentage inhibition of 80-100)”, the “Average of corrected necrosis” value [2, 4] was “C (C represents a percentage increase in necrosis relative to the control of 0.1-50)” and the “Average of corrected necrosis” value [2, 5] was “A (A represents a percentage inhibition of 80-100)”. For the same compound, the “Average of corrected necrosis” value [2, 6] was “C (C represents a percentage increase in necrosis relative to the control of 0.1-50)”, the “Average of corrected necrosis” value [2, 7] was “A (A represents a percentage inhibition of 80-100)” and the “Average of corrected necrosis” value [2, 8] was “C (C represents a percentage increase in necrosis relative to the control of 0.1-50)”. The “Average of corrected necrosis” value [2, 9] was “A (A represents a percentage inhibition of 80-100)”, the “Average of corrected necrosis” value [2, 10] was “C (C represents a percentage increase in necrosis relative to the control of 0.1-50)” and the “Average of corrected necrosis” value [2, 11] was “A (A represents a percentage inhibition of 80-100)”. The “Average of corrected necrosis” value [2, 12] was “C (C represents a percentage increase in necrosis relative to the control of 0.1-50)”, the “Average of corrected necrosis” value [2, 13] was “A (A represents a percentage inhibition of 80-100)” and the “Average of corrected necrosis” value [3, 4] was 0%. The “Average of corrected necrosis” value [3, 5] was “A (A represents a percentage inhibition of 80-100)”, the “Average of corrected necrosis” value [3, 6] was 0% and the “Average of corrected necrosis” value [3, 7] was “A (A represents a percentage inhibition of 80-100)”. The “Average of corrected necrosis” value [3, 8] was 0%, the “Average of corrected necrosis” value [3, 9] was “A (A represents a percentage inhibition of 80-100)” and the “Average of corrected necrosis” value [3, 10] was “C (C represents a percentage increase in necrosis relative to the control of 0.1-50)”. For the same compound, the “Average of corrected necrosis” value [3, 11] was “A (A represents a percentage inhibition of 80-100)”, the “Average of corrected necrosis” value [3, 12] was “C (C represents a percentage increase in necrosis relative to the control of 0.1-50)” and the “Average of corrected necrosis” value [3, 13] was “A (A represents a percentage inhibition of 80-100)”.
